Like-named read-outs stand apart in the source and are kept apart here. Marks after values point to notes of the source that are not given here.
Assays:
[1] = Artificial lipid membrane permeability measurement (96-well filter plate, absorbance); type: in vitro ADME; set-up: Permeability coefficient (P), Example 2 / Permeability coefficient (P), Comparative Example 1: unit: cm/s; settings: 0.5 mmol/L sample; for Papp at 0.5 mmol/L: PAMPA; for Permeability coefficient (P), Comparative Example 1: membrane of Comparative Example 1 (phosphatidylcholine, cholesterol and 1,9-decadiene 2:1:97)
[2] = literature data, References *1 to *4; cited from earlier work
[3] = membrane of Example 1 (phosphatidylcholine 2, cholesterol 1, stearic acid 0.2 %, w/w in 1,7-octadiene), pH 7.0, read-out: Permeability coefficient (P), Example 1
[4] = membrane of Example 2 (phosphatidylcholine 0.75, phosphatidylethanolamine 0.75, phosphatidylserine 0.25, phosphatidylinositol 0.25, cholesterol 1 %, w/w in 1,7-octadiene), pH 6.5
[5] = membrane of Example 3 (phosphatidylcholine and 1,6-heptadiene 2:98), buffer pH 6.5 to pH 7.0, read-out: Permeability coefficient (P), Example 3
[6] = membrane of Example 4 (phosphatidylcholine and 1,7-octadiene 2:98), buffer pH 6.5 to pH 7.0, read-out: Permeability coefficient (P), Example 4
[7] = membrane of Example 5 (phosphatidylcholine and 1,8-nonadiene 2:98), buffer pH 6.5 to pH 7.0, read-out: Permeability coefficient (P), Example 5
[8] = membrane of Comparative Example 2 (phosphatidylcholine and 1,9-decadiene 2:98), buffer pH 6.5 to pH 7.0, read-out: Permeability coefficient (P), Comparative Example 2
[9] = membrane of Example 2 (phosphatidylcholine 0.75, phosphatidylethanolamine 0.75, phosphatidylserine 0.25, phosphatidylinositol 0.25, cholesterol 1 %, w/w in 1,7-octadiene), pH 6.5, read-out: Permeability coefficient (P), Example 2

| Compound | Papp at 0.5 mmol/L [1, 3] [×10⁻⁶ cm/s] | Permeability coefficient (P), Comparative Example 1 ([1]; pH 6.5) | Permeability coefficient (P), Example 2 [1, 4] | Human intestinal absorption (Fa, %) [2] | Papp at 0.5 mmol/L [1, 5] [×10⁻⁶ cm/s] | Papp at 0.5 mmol/L [1, 6] [×10⁻⁶ cm/s] | Papp at 0.5 mmol/L [1, 7] [×10⁻⁶ cm/s] | Papp at 0.5 mmol/L [1, 8] [×10⁻⁶ cm/s] | Papp at 0.5 mmol/L [1, 9] [×10⁻⁶ cm/s] |
| --- | --- | --- | --- | --- | --- | --- | --- | --- | --- |
| O=C(O)c1cc(/N=N/c2ccc(S(=O)(=O)Nc3ccccn3)cc2)ccc1O [Sulfasalazine] | 3.24 | 3.12E-07 | 1.07E-06 | 65*^1% |  |  |  |  |  |
| CC(=O)Nc1ccc(O)cc1 [Acetaminophen] | 8.17 | 4.98E-08 | 1.79E-06 | 80*^1% |  |  |  |  |  |
| CC(C)(C)NC[C@H](O)COc1nsnc1N1CCOCC1 [Timolol] | 9.13 | 1.05E-06 | 1.19E-05 | 90*^1% |  |  |  |  |  |
| CC(C)NCC(O)COc1cccc2ccccc12 (stereo not shown) [Propranolol] |  |  |  |  | 43.8 | 21.5 | 24.6 | 12.5 |  |
| C[C@H]1c2cccc(O)c2C(=O)C2=C(O)[C@]3(O)C(=O)C(C(N)=O)=C(O)[C@@H](N(C)C)[C@@H]3[C@@H](O)[C@@H]21 [Doxycycline] | 7.07 | 1.52E-06 | 2.35E-05 | 95*^3% |  |  |  |  |  |
| N=C(N)NC(=O)c1nc(Cl)c(N)nc1N [Amiloride] | 2.69 | 6.10E-08 | 6.73E-07 | 50*^3% |  |  |  |  |  |
| CN(C)[C@@H]1C(O)=C(C(N)=O)C(=O)[C@@]2(O)C(O)=C3C(=O)c4c(O)cccc4[C@@](C)(O)[C@H]3[C@H](O)[C@@H]12 [Oxytetracycline] | 3.31 | 8.31E-07 | 5.87E-06 | 60*^3% |  |  |  |  |  |
| CO/N=C(\C(=O)N[C@@H]1C(=O)N2C(C(=O)O)=C(CSc3nc(=O)c(=O)[nH]n3C)CS[C@H]12)c1csc(N)n1 [Ceftriaxone] | 1.37 | 1.66E-08 | 2.25E-07 | 1*^4% |  |  |  |  |  |
| CC(C(=O)O)c1cccc(C(=O)c2ccccc2)c1 (stereo not shown) [Ketoprofen] |  |  |  |  | 50.5 | 13.6 | 16.8 | 9.22 |  |
| CC(=O)Nc1ccc(OCC(O)CNC(C)C)cc1 (stereo not shown) [Practolol] | 1.01 | 4.36E-07 | 1.53E-06 |  |  |  |  |  |  |
| CCCC(=O)Nc1ccc(OCC(O)CNC(C)C)c(C(C)=O)c1 (stereo not shown) [Acebutolol] | 4.45 | 1.91E-07 | 3.67E-06 | 90*^1% |  |  |  |  |  |
| CC[C@H](C)C(=O)O[C@H]1C[C@H](O)C=C2C=C[C@H](C)[C@H](CC[C@@H](O)C[C@@H](O)CC(=O)O)[C@H]21 [Pravastatin] | 2.69 | 7.21E-08 | 6.12E-07 | 34*^1% |  |  |  |  |  |
| CC(C)NCC(O)COc1cccc2[nH]ccc12 (stereo not shown) [Pindolol] | 11 | 2.71E-08 | 7.94E-06 | 90*^1% |  |  |  |  |  |
| CCN1CCCC1CNC(=O)c1cc(S(N)(=O)=O)ccc1OC (stereo not shown) [Sulpiride] | 1.34 | 8.33E-08 | 2.23E-06 |  |  |  |  |  |  |
| CCOC(=O)[C@H](CCc1ccccc1)N[C@@H](C)C(=O)N1CCC[C@H]1C(=O)O [Enalapril] | 0.802 | 1.09E-06 |  | 65*^3% |  |  |  |  | 1.37 |
| N=C(N)N/N=C/c1c(Cl)cccc1Cl [Guanabenz] | 19.5 | 4.14E-06 | 1.04E-05 | 75*^1% |  |  |  |  |  |
| COCCc1ccc(OCC(O)CNC(C)C)cc1 (stereo not shown) [Metoprolol] | 9.42 | 7.49E-07 | 6.88E-06 |  |  |  |  |  |  |
| CNC(=C[N+](=O)[O-])NCCSCc1ccc(CN(C)C)o1 [Ranitidine] | 1.22 | 1.34E-07 | 2.19E-06 |  |  |  |  |  |  |
| NS(=O)(=O)c1cc2c(cc1Cl)N=CNS2(=O)=O [Chlorothiazide] | 2.24 | 4.98E-08 | 2.71E-07 |  |  |  |  |  |  |
| CO/N=C(\C(=O)N[C@@H]1C(=O)N2C(C(=O)O)=C(COC(N)=O)CS[C@H]12)c1ccco1 [Cefuroxime] | 0.16 | 2.76E-08 |  | 5*^1% |  |  |  |  | 0.0443 |
| Nc1ccn([C@@H]2O[C@H](CO)[C@@H](O)[C@@H]2O)c(=O)n1 [Cytarabine] | 0.889 | 3.87E-08 |  |  |  |  |  |  | 0.0387 |
| CC(C)(C)NCC(O)COc1cccc2c1CC(O)C(O)C2 (stereo not shown) [Nadolol] | 3.28 | 5.26E-07 |  | 35*^1% |  |  |  |  |  |
| O=C1CC[C@@]2(O)[C@H]3Cc4ccc(O)c5c4[C@@]2(CCN3CC2CC2)[C@H]1O5 [Naltrexone] | 11.2 | 9.61E-06 | 4.50E-06 |  |  |  |  |  |  |
| NS(=O)(=O)c1cc2c(cc1Cl)NCNS2(=O)=O [Hydrochlorothiazide] | 1.34 | 8.64E-07 |  |  | 5.86 | 1.52 | 1.82 | 0.751 | 1.55 |

— patent publication US6861260B2, “Lipid membrane, method for measuring membrane permeability, and method for screening” (Chugai Seiyaku Kabushiki Kaisha, priority 2000, dated 2005)
